From patent US20240150365A1 (Hotspot Therapeutics, Inc., priority 2022, published 2024)

Key:
MALT1 = target: T1, MALT1 (Homo sapiens, UniProt Q9UDY8); test: MALT-1 Fluorogenic Peptide Cleavage Assay (MALT1 inhibition assay); assay type: biochemical; settings: Avi-tagged FL MALT-1, Ac-LRSR-AMC peptide substrate, 30 min pre-incubation, 90 min reaction
T1 construct: Avi-tagged FL MALT-1 (Pharmaron, stored at −70° C.); Avi tag
T1 sequence (Q9UDY8 1-824): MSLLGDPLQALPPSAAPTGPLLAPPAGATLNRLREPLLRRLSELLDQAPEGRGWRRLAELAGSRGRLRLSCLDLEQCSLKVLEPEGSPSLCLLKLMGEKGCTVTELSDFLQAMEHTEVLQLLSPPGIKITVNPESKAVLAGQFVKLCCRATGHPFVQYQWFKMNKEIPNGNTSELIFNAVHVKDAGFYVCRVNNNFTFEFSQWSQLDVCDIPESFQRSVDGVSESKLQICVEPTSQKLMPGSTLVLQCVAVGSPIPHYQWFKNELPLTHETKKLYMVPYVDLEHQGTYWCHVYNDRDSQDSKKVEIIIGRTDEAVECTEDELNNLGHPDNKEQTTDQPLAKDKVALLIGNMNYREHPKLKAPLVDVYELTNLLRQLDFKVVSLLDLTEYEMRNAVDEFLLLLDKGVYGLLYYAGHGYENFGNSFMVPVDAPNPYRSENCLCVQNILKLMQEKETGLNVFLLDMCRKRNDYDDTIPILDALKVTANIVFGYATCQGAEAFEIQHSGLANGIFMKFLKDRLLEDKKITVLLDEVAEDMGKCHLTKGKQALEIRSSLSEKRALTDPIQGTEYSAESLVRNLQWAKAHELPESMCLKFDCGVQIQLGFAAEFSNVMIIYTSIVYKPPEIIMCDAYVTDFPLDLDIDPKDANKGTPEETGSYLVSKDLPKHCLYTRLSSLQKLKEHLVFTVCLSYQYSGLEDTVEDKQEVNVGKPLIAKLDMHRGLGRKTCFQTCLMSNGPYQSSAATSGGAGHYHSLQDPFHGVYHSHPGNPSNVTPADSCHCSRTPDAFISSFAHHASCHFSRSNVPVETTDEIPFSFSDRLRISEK
How it was run: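 Avi-tagged full-length MALT1 pre-incubated 30 min with compound (2% DMSO final), then cleavage of Ac-LRSR-AMC followed over 90 min at room temperature. AMC fluorescence read at 342/441 nm; % inhibition fitted to sigmoidal curves for IC50.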

NF-kB = NF-kB reporter assay in Jurkat cells stimulated with aCD3/aCD28/PMA; assay type: cell-based; settings: Homo sapiens, Jurkat, Jurkat cells, 1 hr compound incubation, aCD3/aCD28/PMA stimulation 4 hr, One-Glo readout; read-out: NF-kB Reporter Assay IC50
How it was run: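 Jurkat cells (25,000/well, serum-free RPMI 1640) preincubated 1 hr at 37° C with serially diluted compound, then stimulated with aCD3/aCD28/PMA (final 5 μg/mL, 5 μg/mL, 0.03 μg/mL) for 4 hr. Reporter luminescence read with One-Glo; IC50 derived.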

Compound: COc1ncc2cnn(C)c2c1NS(=O)(=O)c1ccc(N2C[C@](O)(C(F)(F)F)CC2=O)nc1 [Example I-236, (S)-6-(4-hydroxy-2-oxo-4-(trifluoromethyl)pyrrolidin-1-yl)-N-(6-methoxy-1-methyl-1H-pyrazolo[4,3-c]pyridin-7-yl)pyridine-3-sulfonamide]
- IC50 (MALT1): 400 to 1000 nM
- IC50 (NF-kB): > 2500 nM

Compound: [2H]C([2H])([2H])n1ncc2ccc(OC)c(NS(=O)(=O)c3ccc(-n4cc(C5CC5)cn4)nc3)c21 [Example I-229, 6-(4-Cyclopropyl-1H-Pyrazol-1-yl)-N-(6-Methoxy-1-(Methyl-D3)-1H-Indazol-7-yl)Pyridine-3-Sulfonamide]
- IC50 (MALT1): < 400 nM
- IC50 (NF-kB): < 400 nM

Compound: Cn1c(=O)c2cccc(NS(=O)(=O)c3ccc(-n4cc(C(F)(F)F)cn4)nc3)c2n1C [Example I-158, N-(1,2-Dimethyl-3-Oxo-2,3-Dihydro-1H-Indazol-7-yl)-6-(4-(Trifluoromethyl)-1H-Pyrazol-1-yl)Pyridine-3-Sulfonamide]
- IC50 (MALT1): > 2500 nM
- IC50 (NF-kB): > 2500 nM

Compound: Cn1ncc2cccc(NS(=O)(=O)c3ccc(-n4cc(C(C)(C)C)cn4)nc3)c21 [Example I-276, 6-(4-tert-butylpyrazol-1-yl)-N-(1-methylindazol-7-yl)pyridine-3-sulfonamide]
- IC50 (MALT1): > 2500 nM
- IC50 (NF-kB): < 400 nM

Compound: COc1ncc2nnn(C)c2c1NS(=O)(=O)c1ccc(-n2cc(C(F)(F)F)cn2)nc1 [Example I-180, N-{6-methoxy-1-methyl-[1,2,3]triazolo[4,5-c]pyridin-7-yl}-6-[4-(trifluoromethyl)pyrazol-1-yl]pyridine-3-sulfonamide]
- IC50 (MALT1): 400 to 1000 nM
- IC50 (NF-kB): 1000 to 2500 nM

Compound: Cn1ncc2cccc(NS(=O)(=O)c3ccc(-c4cncnc4)nc3)c21 [Example I-133, N-(1-methylindazol-7-yl)-6-(pyrimidin-5-yl)pyridine-3-sulfonamide]
- IC50 (MALT1): > 2500 nM
- IC50 (NF-kB): > 2500 nM

Compound: COc1ncc2cnn(C)c2c1N(C)S(=O)(=O)c1ccc(-n2cc(C(F)(F)F)cn2)nc1 [Example I-183, N-(6-methoxy-1-methyl-1H-pyrazolo[4,3-c]pyridin-7-yl)-N-methyl-6-(4-(trifluoromethyl)-1H-pyrazol-1-yl)pyridine-3-sulfonamide]
- IC50 (MALT1): < 400 nM
- IC50 (NF-kB): < 400 nM

Compound: Cn1ncc2cccc(NS(=O)(=O)c3ccc(-c4cnc(C5CC5)s4)nc3)c21 [Example I-265, 6-(2-cyclopropyl-1,3-thiazol-5-yl)-N-(1-methylindazol-7-yl)pyridine-3-sulfonamide]
- IC50 (MALT1): > 2500 nM
- IC50 (NF-kB): < 400 nM

Compound: Cc1c(-c2ccc(S(=O)(=O)Nc3cccc4cnn(C)c34)cn2)cnn1C1COC1 [Example I-274]
- IC50 (MALT1): > 2500 nM
- IC50 (NF-kB): < 400 nM

Compound: COCCn1ncc2cccc(NS(=O)(=O)c3ccc(-n4ccc(C(C)C)n4)nc3)c21 [Example I-215, 6-(3-isopropyl-1H-pyrazol-1-yl)-N-(1-(2-methoxyethyl)-1H-indazol-7-yl)pyridine-3-sulfonamide]
- IC50 (MALT1): > 2500 nM
- IC50 (NF-kB): > 2500 nM

Compound: Cn1ncc2cccc(NS(=O)(=O)c3ccc(-n4cc(C5(O)CC5)cn4)nc3)c21 [Example I-56, 6-(4-(1-hydroxycyclopropyl)-1H-pyrazol-1-yl)-N-(1-methyl-1H-indazol-7-yl)pyridine-3-sulfonamide]
- IC50 (MALT1): > 2500 nM
- IC50 (NF-kB): < 400 nM

Compound: COc1ccc2cnn(C)c2c1NS(=O)(=O)c1ccc(-n2cc(C)n(C)c2=O)nc1 [Example I-202, 6-(3,4-Dimethyl-2-Oxo-2,3-Dihydro-1H-Imidazol-1-yl)-N-(6-Methoxy-1-Methyl-1H-Indazol-7-yl)Pyridine-3-Sulfonamide]
- IC50 (MALT1): 400 to 1000 nM
- IC50 (NF-kB): < 400 nM

Compound: Cn1ncc2cccc(NS(=O)(=O)c3ccc(-c4ccn[nH]4)nc3)c21 [Example I-81, N-(1-Methyl-1H-Indazol-7-yl)-6-(1H-Pyrazol-5-yl)Pyridine-3-Sulfonamide]
- IC50 (MALT1): > 2500 nM
- IC50 (NF-kB): 400 to 1000 nM

Compound: Cc1cc(-c2ccc(S(=O)(=O)Nc3cccc4cnn(C)c34)cn2)ccn1 [Example I-132, 2′-methyl-N-(1-methylindazol-7-yl)-[2,4′-bipyridine]-5-sulfonamide]
- IC50 (MALT1): > 2500 nM
- IC50 (NF-kB): < 400 nM

Compound: Cn1[nH]c(=O)c2cccc(NS(=O)(=O)c3ccc(-n4cc(C(F)(F)F)cn4)nc3)c21 [Example I-201, N-(1-Methyl-3-Oxo-2,3-Dihydro-1H-Indazol-7-yl)-6-(4-(Trifluoromethyl)-1H-Pyrazol-1-yl)Pyridine-3-Sulfonamide]
- IC50 (MALT1): > 2500 nM
- IC50 (NF-kB): > 2500 nM

Compound: Cn1ncc2cccc(NS(=O)(=O)c3ccc(-c4cnn(CCO)c4)nc3)c21 [Example I-146, 6-(1-(2-Hydroxyethyl)-1H-Pyrazol-4-yl)-N-(1-Methyl-1H-Indazol-7-yl)Pyridine-3-Sulfonamide]
- IC50 (MALT1): > 2500 nM
- IC50 (NF-kB): > 2500 nM

Compound: Cn1ncc2cccc(NS(=O)(=O)c3ccc(-c4cnc(C(F)(F)F)s4)nc3)c21 [Example I-214, N-(1-Methyl-1H-Indazol-7-yl)-6-(2-(Trifluoromethyl)Thiazol-5-yl)Pyridine-3-Sulfonamide]
- IC50 (MALT1): 400 to 1000 nM
- IC50 (NF-kB): < 400 nM

Compound: COc1ccc2cnn(C)c2c1NS(=O)(=O)c1ccc(-n2cc(C(F)(F)F)cn2)nc1 [Example I-10, N-(6-Methoxy-1-Methylindazol-7-yl)-6-[4-(Trifluoromethyl) Pyrazol-1-yl]pyridine-3-Sulfonamide]
- IC50 (MALT1): < 400 nM
- IC50 (NF-kB): < 400 nM

Compound: COc1cccc(-c2ccc(S(=O)(=O)Nc3cccc4cnn(C)c34)cn2)n1 [Example I-111, 6′-Methoxy-N-(1-Methyl-1H-Indazol-7-yl)-[2,2′-Bipyridine]-5-Sulfonamide]
- IC50 (MALT1): > 2500 nM
- IC50 (NF-kB): < 400 nM

Compound: Cn1[nH]c2cccc(NS(=O)(=O)c3ccc(-n4cc(C(F)(F)F)cn4)nc3)c2c1=O [Example I-190, N-(2-methyl-3-oxo-2,3-dihydro-1H-indazol-4-yl)-6-(4-(trifluoromethyl)-1H-pyrazol-1-yl)pyridine-3-sulfonamide]
- IC50 (MALT1): > 2500 nM
- IC50 (NF-kB): > 2500 nM

Compound: COc1ccc2cnn(C)c2c1NS(=O)(=O)c1ccc(-c2nc(C(F)(F)F)n[nH]2)nc1 [Example I-167, N-(6-Methoxy-1-Methyl-1H-Indazol-7-yl)-6-(3-(Trifluoromethyl)-1H-1,2,4-Triazol-5-yl)Pyridine-3-Sulfonamide]
- IC50 (MALT1): 1000 to 2500 nM
- IC50 (NF-kB): > 2500 nM

Compound: COc1ccc2cnn(C)c2c1NS(=O)(=O)c1ccc(-n2cc(C(C)C)cn2)nc1 [Example I-32, 6-(4-Isopropyl-1H-Pyrazol-1-yl)-N-(6-Methoxy-1-Methyl-1H-Indazol-7-yl)Pyridine-3-Sulfonamide]
- IC50 (MALT1): < 400 nM
- IC50 (NF-kB): < 400 nM

Compound: Cn1ncc2cccc(NS(=O)(=O)c3ccc(-c4cc(C(F)(F)F)n[nH]4)nc3)c21 [Example I-84, N-(1-Methyl-1H-Indazol-7-yl)-6-(3-(Trifluoromethyl)-1H-Pyrazol-5-yl)Pyridine-3-Sulfonamide]
- IC50 (MALT1): 400 to 1000 nM
- IC50 (NF-kB): < 400 nM

Compound: Cn1ncc2cc(F)cc(NS(=O)(=O)c3ccc(-n4cc(C(F)(F)F)cn4)nc3)c21 [Example I-73, N-(5-Fluoro-1-Methylindazol-7-yl)-6-[4-(Trifluoromethyl)Pyrazol-1-Yl]Pyridine-3-Sulfonamide]
- IC50 (MALT1): 400 to 1000 nM
- IC50 (NF-kB): 400 to 1000 nM

Compound: Cc1cc(C(F)(F)F)nn1-c1ccc(S(=O)(=O)Nc2cccc3cnn(C)c23)cn1 [Example I-43, 6-[5-Methyl-3-(Trifluoromethyl)Pyrazol-1-Yl]-N-(1-Methylindazol-7-yl)Pyridine-3-Sulfonamide]
- IC50 (MALT1): 1000 to 2500 nM
- IC50 (NF-kB): < 400 nM

Compound: Cn1ncc2cccc(NS(=O)(=O)c3ccc(-c4cnn5c4COCCC5)nc3)c21 [Example I-313]
- IC50 (MALT1): > 2500 nM
- IC50 (NF-kB): < 400 nM

Compound: COc1ccc2cnn(C)c2c1NS(=O)(=O)c1ccc(-n2nc(C)cc2C)nc1 [Example I-142, 6-(3,5-Dimethyl-1H-Pyrazol-1-yl)-N-(6-Methoxy-1-Methyl-1H-Indazol-7-yl)Pyridine-3-Sulfonamide]
- IC50 (MALT1): < 400 nM
- IC50 (NF-kB): < 400 nM

Compound: Cn1ncc2cccc(NS(=O)(=O)c3ccc(-c4cncc(S(C)(=O)=O)c4)nc3)c21 [Example I-137, N-(1-Methyl-1H-Indazol-7-yl)-5′-(Methylsulfonyl)-[2,3′-Bipyridine]-5-Sulfonamide]
- IC50 (MALT1): > 2500 nM
- IC50 (NF-kB): > 2500 nM

Compound: COc1ccc2cnn(C)c2c1NS(=O)(=O)c1ccc(-n2ccc(C(F)(F)F)n2)nc1 [Example I-16]
- IC50 (MALT1): < 400 nM
- IC50 (NF-kB): < 400 nM
